Source: patent US20200022944A1, “COMPOSITION OR MEDICAL FOOD TO EXTRACT THE DIETARY IRON AND BOOST ITS BIOAVAILABILITY FOR IRON DEFICIENCY (ID) AND ID-ANEMIA” (TIXUPHARMA DI CARLO GHISALBERTI, priority 2017, published 2020)

Columns and labels:
[1] = In vitro digestion model: extraction of dietary non-heme iron from vegetal foods; settings: for yield of extracted iron from vegetal food: canned soybean, red beans, peas, 1 ml 10 mM, versus water control; for surplus of yields of gastroactive (GA) model over gastropassive (GP) condition: with versus without classic digestive enzymes
Method: The method assessed the extraction of dietary non-heme iron by maltol or ethyl maltol in simulated digestion of vegetal foods, with/without digestive enzymes. In brief, samples (10 g) of vegetable foods, viz. canned soybean, red beans and peas were smashed in mortar with 5 ml water. Specimen were combined in 50 ml tubes supplemented with HCl solution (pH 2.5) of mix of classic digestive enzymes consisting in: 2 mg pepsin 1:3000; 0.5 mg lipase 200 FIP/g; and bile enzymes, i.e. 2.5 mg bovine bile extract; 1.25 pancreatin extract 4:1 in “gastroactive” model (“GA”). A parallel test named “gastropassive” use non enzymes. Tube were added with 1 ml maltol/ethyl maltol 10 mM, or water in control, and underwent 2 hours of slow motion (60 o/min) at controlled temperature. The pH was finally adjusted to 6-7 (1N NaOH) and the tubes remained on oscillation for further 30 min. The digests were collected, filtered at 100 μm mesh, diluted and read at 405 nm. Results expressed as % recovery of Fe calculated against a calibration curve) are plotted in FIG. 3.

[2] = tested on: rodents conducted to anemia by iron starvation; assay: Murine model of anemic therapy (iron-deficient diet); type: in vivo, female Wistar rats; settings: normalized-iron vegetal diet comprising the substance after ID diet, compared to both controls
Method: This in vivo murine study sized the capacity of maltol/ethyl maltol compounded into food to enhance iron uptake in rodents conducted to anemia by iron starvation. For that purpose, 6-wk old female Wistar rats were fed for 28 days a iron-deficient diet (Fe:12 mg/kg), labeled IDD1. A control group received standard diet (Fe:45 mg/kg) (Ctrl1) along the entire experiment. In the second stage, IDD1 rats were randomized for 26 days test diets conceived as follows: the M3 and EM3 groups received cookies with 3% of maltol or 3% ethyl maltol, respectively. The M/EMO group was fed with cookies without maltol/ethyl maltol; while the IDD2 group was maintained at Fe-deficient diet. […] Cookies were produced from corn flour and vegetal fat, and backed at 180° C. for 15 minM, whereas in M3 and EM3 groups a portion (3%) of corn flour was replaced with maltol and ethyl maltol. Animals were kept in room with 12 h light/dark cycle, temperature of 24° C. […], and drinking water ad libitum. […] Serum iron was measured at 623 nm, haemoglobin content (Hb) total iron binding capacity (TIBC), erythrocytes, haemoglobin (Hb), hematocrit (Ht), mean corpuscular volume (MCV), mean corpuscular haemoglobin (MCH), and MCH concentration (MCHC) assessed according to Regula et al. Ann Agric Environ Med 2016;23(2):310-4. Iron transferrin saturation (TSAT) was calculated by the formula: TSAT=(Fe/TIBC)×[…].

Caco-2 cells = assay: Caco-2 monolayer absorption: ferritin formation; settings: 1 h contact at 37° C., 23 h re-incubation; Fe 200 μM
Method: Caco-2 cells cultivated and used at passages 24-50 in culture medium, serum-free MEM, were exposed to test substances in culture medium.
(§1) (a) maltol (MAL) and ethyl maltol (EMAL) at 10 mM concentration;
(§2) (c) iron sources: FAC (Fe^III) and ferrous sulfate (FS, Fe^III) at 1:10 eq/eq with respect to AA, at 1:20 eq/eq with respect to CA, and at 1:5 eq/eq with respect to MAL.
(§3) The final Fe concentration was fixed 200 μM with the other molar ratio as listed above, while the solution were then neutralized to pH 6-7.
One hour contact at 37° C. was used for similarity of duodenal contact time. After incubation 1 h the medium was aspirated, cell monolayer washed 3× PBS-EDTA and fresh MEM added. Cells were re-incubated for 23 h to allow ferritin formation, lysed with 400 μl of MPER® lysis buffer, lysate collected, centrifuged for 5′ at 16,000×g, and supernatant collected for analysis. The solutions were filter-sterilized (0.2 μm syringe filter) prior dilution in the culture medium.
Ferritin content of Caco-2 cells was determined by an ELISA kit, results corrected for the baseline values and expressed in relation to total cell protein in ng ferritin/mg cell protein.

[3] = Cell-free in vitro competition test for Fe(III) versus antinutrients; type: physicochemical; settings: for recovery of Fe as 1:3 Fe-ligand complex in competition with non-cathecolic polyphenols (avg.): average; for recovery of Fe as 1:3 Fe-ligand complex in competition with non-cathecolic polyphenols (avg.) / recovery of Fe as 1:3 Fe-ligand complex in competition with oxalates / recovery of Fe as 1:3 Fe-ligand complex in competition with phosphate: vs citrate ref standard of 100% recovery; for recovery of Fe as 1:3 Fe-ligand complex in competition with oxalates / recovery of Fe as 1:3 Fe-ligand complex in competition with phosphate: sequential pH 6/2.5/6.5, CH2Cl2 extract read at 405 nm; for iron competition versus phytate and catecholic polyphenols: without enzymatic co-treatment
Method: The method evaluates the competitive affinity for Fe(III) of maltol/ethyl maltol versus antinutrients, i.e. the iron sequestering agents occurring in food, in a 3-step method which adopts a sequential pH 6/2.5/6.5 mimic the pHs occurring in stomach at fast, during gastro digestion and in duodenum, respectively. Stock solution at 10 mM conc. were prepared by dissolving in water the following reagents: (a) antinutrient series: EDTA (EDTA=negative control), ellagic acid (ELL), gallic acid (GAL), hesperidin (HES), naringin (NAR), monosodium oxalate (OXA), disodium phosphate (PHO), quercetin (QUE), rutin (RUT), tannic acid (TAN), phytic acid sodium salt (PHY); wherein the cathecolic polyphenols (CPP) are presented as pooled (b) maltol (MAL) and ethyl maltol (EMAL); […] In brief, in 15-ml tubes were combined 100 μl of 10 mM FAC (1 μmol); 1 ml of 10 mM CaCl2 (10 μmol); 1 ml of 10 mM 3-hydroxy-4-pyrone (10 μmol); 1 ml of each antinutrient at 10 mM (10 μmol); and 2 ml of water to 5 ml final volume. No antinutrients were introduced in the positive control. Tubes were oscillated at 30 rpm for 2.5 hours, of which: 1 hour at initial pH 6-6.5; 1 hour at pH 2-2.5 (by 50 μl 1N HCl), and final 30 min. at pH around 6.5 (by 50 μl 1N NaOH). The tubes were then added with 2 ml di CH2Cl2 and shacked for 2 min. […] Residues were taken up with 2 ml water and read at 405 nm. Absorbance calibration: r=0.30 and linear correlation within the 40-4 μM range (r2=1; […] on 0-intercept).

[4] = tested on: inflammatory bowel disease; settings: animal model of IBD; Minaiyan et al. 2012; cited from earlier work
[5] = pH 6
Method: as §1, §2, §3
Total iron was determined by inductively-coupled plasma optical emission spectrometry, where both ICP-OES standards and samples were diluted in 0.5% HNO3 in 0-1000 ppb range. Physical classification of iron was assessed after centrifugation (10,000×g, 5 min.), the supernatant was ultrafiltrated with 3kDa MWCO filter 10,000×g, 10 min. Phase distribution was calculated as: iron microparticulate (total Fe−Fe in supernatant), iron nanoparticulate (Fe ultrafiltrate−Fe in supernatant) and soluble iron (Fe ultrafiltrate/total Fe).

CCc1occc(=O)c1O [ethyl maltol]
yield of extracted iron from vegetal food [1]: increased the yield of extracted iron from vegetal food
surplus of yields of gastroactive (GA) model over gastropassive (GP) condition [1]: about 10%
recovery of iron and hematologic levels [2]: faster recovery of iron and hematologic levels
ferritin formation in Caco-2 cells (Caco-2 cells): produced soluble iron utilized by enteric cells for ferritin synthesis
recovery of Fe as 1:3 Fe-ligand complex in competition with non-cathecolic polyphenols (avg.) [3]: 95%
recovery of Fe as 1:3 Fe-ligand complex in competition with oxalates [3]: 89%
recovery of Fe as 1:3 Fe-ligand complex in competition with phosphate [3]: 98%
iron competition versus phytate and catecholic polyphenols [3]: limited efficiency

Cc1occc(=O)c1O [maltol]
yield of extracted iron from vegetal food [1]: increased the yield of extracted iron from vegetal food
surplus of yields of gastroactive (GA) model over gastropassive (GP) condition [1]: about 10%
therapeutic dosage (ED50) [4]: 140-240 mg/kg bw
recovery of iron and hematologic levels [2]: faster recovery of iron and hematologic levels
ferritin formation in Caco-2 cells (Caco-2 cells): produced soluble iron utilized by enteric cells for ferritin synthesis
iron solubility / phase distribution [5]: retain the Fe(III) solubility at supplemental levels
recovery of Fe as 1:3 Fe-ligand complex in competition with non-cathecolic polyphenols (avg.) [3]: 95%
recovery of Fe as 1:3 Fe-ligand complex in competition with oxalates [3]: 89%
recovery of Fe as 1:3 Fe-ligand complex in competition with phosphate [3]: 98%
iron competition versus phytate and catecholic polyphenols [3]: limited efficiency
